Laboratory results: patent US20210369677A1, “SMALL MOLECULE ACTIVATORS OF POLYCYSTIN-2 (PKD2) AND USES THEREOF” (Northwestern University, priority 2020, published 2021)
pEC50: −log10 of the molar value. Entries after “also recorded” stand apart in the source; their conditions may differ.

Assays:
[1] = biological target: T1, human polycystin-2 CTD EF hand (I704-P797) (Homo sapiens, UniProt Q13563); assay: Isothermal titration calorimetry of divalent ions into the CTD of polycystin-2; type: binding
T1 construct: The C-terminal fragment of the human polycystin-2 (I704-P797) was cloned into the PET19b vector; 10xHis (N); made in house; host or cells: E. coli BL21 (DE3)
T1 sequence (Q13563 704-797): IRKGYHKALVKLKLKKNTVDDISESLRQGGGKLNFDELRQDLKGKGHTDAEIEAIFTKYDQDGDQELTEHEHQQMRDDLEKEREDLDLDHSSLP
Protocol: CTD protein expression, purification, and isothermal titration calorimetry. The C-terminal fragment of the human polycystin-2 (I704-P797) was cloned into the PET19b vector and transformed into BL21 (DE3) competent cells (New England Biolabs) for bacterial expression. The translated peptide has a 10×His tag on its N-terminus. The alanine mutants of the individual calcium-coordinating residues were created and transformed as well. Cells were grown in 2XYT broth in a 37° C. shaking incubator until OD600 reaches ˜0.6, and were induced by 0.4 mM isopropyl 1-thio-β-D-galactopyranoside and grown for another 4 hours. Cells were harvested and resuspended in Buffer A (500 mM NaCl, 20 mM Tris/HCl, pH 7.4), 5% glycerol, 0.25 mM EDTA pH 8.0, 1 mM PMSF (RPI), 25 μg/ml of lysozyme and DNase I (GoldBio). The suspension was then lysed by sonication and clarified by centrifugation (30,000×g for 0.5 h). Filtered supernatant was loaded into a HisPur cobalt Superflow agarose column (ThermoScientific). The column was washed with 10 column volume (CV) of buffer A, 5 CV of buffer A+5 mM imidazole, and finally eluted with 3 CV of buffer A+100 mM imidazole. The eluate was desalted by dialysis in 150 mM NaCl, 20 mM Tris/HCl, 20 mM imidazole, pH 7.4. SDS-PAGE gel confirmed the expression, solubility, and purity of the peptide. All of our solutions were formulated with ultrapure water (Milli-Q® IQ 7005 water purification system), that has less than 0.29 ng/L calcium ions present. The binding affinity is recorded based on the heat difference between the sample cell and reference cell measured by MicroCal iTC200. […] The cells were insulated by an adiabatic jacket held at 25° C. The heat of dilution of Ca^2+ was not subtracted from data sets, as the signal was prohibitively small for several of the mutant channels. The exothermic energy of the bimolecular interaction between Ca^2+ and peptide during each injection was analyzed by integrating the change in heat to generate the binding isotherm. […]

PKD2 [2] = biological target: T2, PKD2 (Homo sapiens, UniProt Q13563); assay: Cilia Ca2+ fluorescence (smo-GCaMP3), Stage 2; type: cell-based; parameters: cilia Ca^2+ responses from cells with PKD2 present and knocked out using CRISPR=Cas9; endogenous in cells; host or cells: human kidney collecting duct cells expressing the smo-GCaMP3 cilia reporter; details: smo-GCaMP3, human kidney collecting duct cells; read-out: EC50, increased ciliary Ca2+ fluorescence
T2 sequence (Q13563 1-968): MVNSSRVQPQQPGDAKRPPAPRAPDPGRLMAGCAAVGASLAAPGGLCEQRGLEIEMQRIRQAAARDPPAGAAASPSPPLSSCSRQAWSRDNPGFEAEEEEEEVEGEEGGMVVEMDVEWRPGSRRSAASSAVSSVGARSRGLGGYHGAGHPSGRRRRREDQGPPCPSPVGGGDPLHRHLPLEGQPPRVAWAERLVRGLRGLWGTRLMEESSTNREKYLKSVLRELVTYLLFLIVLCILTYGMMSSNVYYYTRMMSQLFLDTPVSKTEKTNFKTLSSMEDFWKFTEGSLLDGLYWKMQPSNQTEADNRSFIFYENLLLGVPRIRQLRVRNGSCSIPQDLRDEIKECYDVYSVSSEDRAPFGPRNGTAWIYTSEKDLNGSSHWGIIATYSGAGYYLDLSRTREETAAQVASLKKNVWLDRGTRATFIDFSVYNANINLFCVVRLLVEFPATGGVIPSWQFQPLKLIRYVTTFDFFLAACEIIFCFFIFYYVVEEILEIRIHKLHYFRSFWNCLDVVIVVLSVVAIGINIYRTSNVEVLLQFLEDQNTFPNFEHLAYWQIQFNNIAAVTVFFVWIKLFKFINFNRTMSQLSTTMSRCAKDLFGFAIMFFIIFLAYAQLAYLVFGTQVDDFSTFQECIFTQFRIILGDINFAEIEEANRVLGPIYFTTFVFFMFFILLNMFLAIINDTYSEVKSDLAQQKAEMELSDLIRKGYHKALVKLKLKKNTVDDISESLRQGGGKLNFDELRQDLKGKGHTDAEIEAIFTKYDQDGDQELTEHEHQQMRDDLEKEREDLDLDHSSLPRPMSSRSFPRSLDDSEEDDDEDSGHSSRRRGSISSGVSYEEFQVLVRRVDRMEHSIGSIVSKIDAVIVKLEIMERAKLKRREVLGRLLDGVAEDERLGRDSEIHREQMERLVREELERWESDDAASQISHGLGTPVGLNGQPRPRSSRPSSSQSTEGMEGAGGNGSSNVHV
Source text: (§1) FIG. 31. […] Top, the screening of each stage. […] Bottom, cilia Ca^2+ responses from cells with PKD2 present and knocked out using CRISPR=Cas9 (N=17 cells each). D, E) Stage 3 (Cilia Electrophysiology): image of a patched cilia from collecting ducts and corresponding PKD2-dependent current activated by NS1643.
(§2) Our screening strategy included three stages. (See FIG. 31). In Stage 1 of our screening assay, we utilized cyst cells in a P. pastoris (strain YS634) PKD2 Ca^2+-dependent yeast growth assay. P. pastoris growth is dependent on induction and stimulation of PKD2 ion transport by test compounds including NS1643, calmidazolium, and W-13. In Stage 2, we measured PKD2 activation by the test compounds using increased ciliary Ca2+ fluorescence and membrane potential from human kidney collecting duct cells in which PKD2 had been knocked out by CRISPR-Cas9. In Stage 3, we assessed activation of polystin-2 dependent currents by the test compounds via imaging of patched cilia from collecting ducts and measuring change in current versus voltage. […] (See FIG. 32).

PKD2 [3] = biological target: T2, PKD2; assay: Cilia electrophysiology of patched cilia from collecting ducts (Stage 3); type: cell-based
Source text: as §1, §2

PKD2 [4] = biological target: T2, PKD2; assay: P. pastoris PKD2 Ca2+-dependent yeast growth assay (Stage 1); type: cell-based; details: P. pastoris strain Y5634; read-out: EC50, yeast growth dependent on stimulation of PKD2 cation transport
Source text: as §1, §2

PKD2 [5] = biological target: T2, PKD2; assay: Three stage testing strategy for PKD2 activators; type: cell-based; details: three screening stages
Source text: as §1
The polycystin pharmacophore remains outstanding because these channels localize to the primary cilium—an antenna-like organelle that requires innovative tools to study. To address this knowledge gap, our laboratory has established a series of cilia-specific channel activity reporters (voltage and calcium reporters) and model systems (poly cystin-dependent yeast growth) which will be used in a three-stage drug screen to characterize the pharmacology of polycystins. We screened a commercially available chemical library containing 384 compounds for activity against wild type polycystins, and identified three channel activators. […]
Our screening strategy included three stages. […] In Stage 2, we measured PKD2 activation by the test compounds using increased ciliary Ca2+ fluorescence and membrane potential from human kidney collecting duct cells in which PKD2 had been knocked out by CRISPR-Cas9. In Stage 3, we assessed activation of polystin-2 dependent currents by the test compounds via imaging of patched cilia from collecting ducts and measuring change in current versus voltage. […]

PKD2 [6] = biological target: T2, PKD2; assay: PKD2 conductance assay; type: cell-based
Source text: FIG. 35. Conductance of PKD2 in the presence of test compounds CAS Number 57265-65-3 (calmidazolium (CMZ)), CAS Number 617-27-0 (W-13), and CAS Number 448895-37-2 (NS1643)
We also tested the additional compound CAS Number 57265-65-3 (calmidazolium (CMZ)), the compound CAS Number 617-27-0 (W-13), and NS1643 in a PKD2 conductance assay.

polycystin-2L1 = type: cell-based; details: 10 μM, plasma membrane of HEK cells
Protocol: (§3) Electrophysiology. Ciliary ion currents were recorded using borosilicate glass electrodes polished to resistances of 14-22 MΩ using the cilium patch method previously described^32. Whole cell electrodes used to measure poly cystin-2L1 currents were fire polished to 1.5-4 MΩ resistances. Unless otherwise stated, whole cilia ionic currents were recorded in symmetrical [Na^+]. The pipette standard internal solution contained (in mM): 90 NaMES, 10 NaCl, 10 HEPES, 10 Na4-BAPTA (Glycine, N, N′-[1,2-ethanediylbis(oxy-2,1-phenylene)]bis[N-(carboxymethyl)]-,tetrasodium); pH was adjusted to 7.3 using NaOH. Standard bath solution contained 140 NaCl, 10 HEPES, 1.8 CaCl2); pH 7.4. All solutions were osmotically balanced to 295 (±6) mOsm with mannitol. Extracellular solutions containing TCEP and GSH were used within six hours of formulation. Data were collected using an Axopatch 200B patch clamp amplifier, Digidata 1440A, and pClamp 10 software. Whole-cilium and excised patch currents were digitized at 25 kHz and low-pass filtered at 10 kHz. In the whole cilium configuration, the holding potential was −60 mV and then depolarized using a 400 ms voltage ramp from −100 mV to 100 mV. The whole cell recordings of polycystin-2L1 currents were either activated by the same ramp protocol or by 100 ms depolarizations to 100 mV from a −100 mV holding potential. External conditions were controlled using a Warner Perfusion Fast-Step (SF-77B) system in which the patched cilia and electrode were held in the perfusate stream. Data were analyzed by Igor Pro 7.00 (Wavemetrics, Lake Oswego, Oreg.). The polycystin-2 open probability and the polycystin-2L1 tail current-voltage relationships were fit to a Boltzmann function, f(x)=1/(1+exp[V−V1/2]/k) to estimate voltage of half-maximal activation of current (V1/2).

polycystin-2 = biological target: T3, polycystin-2 (Homo sapiens, UniProt Q13563); type: cell-based; details: 10 μM, voltage ramps
T3 construct: expressed in transfected cells
T3 sequence (Q13563 1-968): T2 sequence (Q13563 1-968)
Source text: Generation of HEK PKD2^Null cells line and the stable expression PKD2 variants. To generate the HEK PKD2^Null cell lines, we used a CRISPR/Cas9 gene editing kit available from Addgene (kit 1000000055). HEK 293 cells were electro-transfected with sgRNAs (caccg[…] and aaac[…]c) with the All-in-one Cas9 plasmid. […] Cells generated from single cell clones were selected after 4 weeks of expansion in a 96-wells plate. […] To generate the WT and variant PKD2 GFP or mCherry C-terminally tagged variant cell lines, the hPKD gene was subcloned into lentiviral pLVX-mcherry-N1 (Clontech) or pLVX-GFP-N1 (Clontech) vector using the Gibson assembly method. A linker encoding for six glycine residues was added between the PKD2 gene and the C-terminal tags, and missense variants were generated using standard, site-directed mutagenesis. The third-generation lentiviral packaging plasmids used for stable expression contained: pMDLg/pRRE (Addgene), […] pRSV-Rev (Addgene), and envelope expressing plasmid pMD2.G (Addgene). LentiX-293T cells (Takara) were transfected with polyethylineimine (Polysciences) at a 4:1:1:1 ratio of the transgene and viral packaging constructs. Supernatants were collected 48 and 72 hours post transfection and filtered through a 0.45 μm syringe filter. Lentiviral supernatant was concentrated 100 times using 1 volume of PEG-it (System Biosciences) virus precipitation solution and 4 volume of lentivirus-containing supernatant. The PEG-it and supernatant mixture were kept at 4 degrees for 24 hours and centrifuged at 1500 rpm for 30 minutes. The pellet containing lentivirus was resuspended with 1/100th volume of PBS of the original supernatant volume. HEK cells were infected with the lentivirus supernatant; PKD2-GFP or PKD2-mCherry expression was selected using culture media containing puromycin (2 μg/ml) for 30 to 90 days. Cells were then fluorescence-activated cell sorted (BD FacsMelody) at 5000 to 10,000 counts per minute to enrich for the transgene expression. Stable cell lines were cultured in Dulbecco's modified essential medium (DMEM) supplemented with 10% fetal bovine serum (FBS) and 100 units/ml penicillin, 100 units/ml streptomycin and 1 μg/ml puromycin selection antibiotic.
as §3, with “potential.” for “potential. External conditions were controlled using a Warner Perfusion Fast-Step (SF-77B) system in which the patched cilia and electrode were held in the perfusate stream. Data were analyzed by Igor Pro 7.00 (Wavemetrics, Lake Oswego, Oreg.). The polycystin-2 open probability and the polycystin-2L1 tail current-voltage relationships were fit to a Boltzmann function, f(x)=1/(1+exp[V−V1/2]/k) to estimate voltage of half-maximal activation of current (V1/2).”

[Mg+2] [Mg^2+]
Affinity of other divalent ions for polycystin-2 EF hand [1]: did not have affinity

O=C(Nc1cc(C(F)(F)F)ccc1O)Nc1cc(C(F)(F)F)ccc1O [NS1643, 1,3-bis[2-hydroxy-5-(trifluoromethyl)phenyl]urea]
pEC50 (PKD2 [2]): 5.64 | PKD2-dependent current (PKD2 [3]): activated | pEC50 (PKD2 [4]): 5.96 | Identification as PKD2 activator (PKD2 [5]): identified as an activator of PKD2 activity; also recorded: exemplary PKD2 activator | PKD2 conductance (PKD2 [6]): increased PKD2 conductance

NCCCCCCNS(=O)(=O)c1cccc2c(Cl)cccc12 [W-13, N-(6-Aminohexyl)-5-chloro-1-naphthalenesulfonamide]
PKD2 conductance (PKD2 [6]): increased PKD2 conductance

[Zn+2] [Zn^2+]
Affinity of other divalent ions for polycystin-2 EF hand [1]: did not have affinity

[La] [lanthanum]
Block of polycystin-2L1 currents by trivalent ions (polycystin-2L1): blocked | Block of ciliary WT polycystin-2 currents by trivalent ions (polycystin-2): blocked
